Test: MAESTRO-NASH: sex hormones at week 52
Conditions: for Estradiol (female), LS mean CFB / Estradiol (female), LS mean difference from PBO (CFB) / Estradiol (male), LS mean CFB / Estradiol (male), LS mean difference from PBO (CFB) / FSH (female), LS mean CFB / FSH (female), LS mean difference from PBO (CFB) / FSH (male), LS mean CFB / FSH (male), LS mean difference from PBO (CFB) / Free testosterone (female), LS mean CFB / Free testosterone (female), LS mean difference from PBO (CFB) / Free testosterone (male), LS mean CFB / Free testosterone (male), LS mean difference from PBO (CFB) / LH (female), LS mean CFB / LH (female), LS mean difference from PBO (CFB) / LH (male), LS mean CFB / LH (male), LS mean difference from PBO (CFB) / SHBG (female), LS mean % CFB / SHBG (female), LS mean CFB / SHBG (female), LS mean difference from PBO (% CFB) / SHBG (female), LS mean difference from PBO (CFB) / SHBG (male), LS mean % CFB / SHBG (male), LS mean CFB / SHBG (male), LS mean difference from PBO (% CFB) / SHBG (male), LS mean difference from PBO (CFB) / SHBG, LS mean % CFB / SHBG, LS mean CFB / SHBG, LS mean difference from PBO (% CFB) / SHBG, LS mean difference from PBO (CFB) / Testosterone (female), LS mean CFB / Testosterone (female), LS mean difference from PBO (CFB) / Testosterone (male), LS mean CFB / Testosterone (male), LS mean difference from PBO (CFB): Week 52

## CC(C)c1cc(Oc2c(Cl)cc(-n3nc(C#N)c(=O)[nH]c3=O)cc2Cl)n[nH]c1=O [Resmetirom, 2-(3,5-dichloro-4-((5-isopropyl-6-oxo-1,6-dihydropyridazin-3-yl)oxy)phenyl)-3,5-dioxo-2,3,4,5-tetrahydro-1,2,4-triazine-6-carbonitrile]
80 mg
  Estradiol (female), LS mean CFB: 17.7 ng/L
  Estradiol (female), LS mean difference from PBO (CFB): 15.9 ng/L
  Estradiol (male), LS mean CFB: 8.9 ng/L
  Estradiol (male), LS mean difference from PBO (CFB): 9.0 ng/L
  FSH (female), LS mean CFB: −0.54 mIU/mL
  FSH (female), LS mean difference from PBO (CFB): 0.79 mIU/mL
  FSH (male), LS mean CFB: 1.1 mIU/mL
  FSH (male), LS mean difference from PBO (CFB): 1.1 mIU/mL
  Free testosterone (female), LS mean CFB: 0 nmol/L
  Free testosterone (female), LS mean difference from PBO (CFB): 0 nmol/L
  Free testosterone (male), LS mean CFB: 0.04 nmol/L
  Free testosterone (male), LS mean difference from PBO (CFB): 0.02 nmol/L
  LH (female), LS mean CFB: −0.93 mIU/mL
  LH (female), LS mean difference from PBO (CFB): −0.33 mIU/mL
  LH (male), LS mean CFB: 1.7 mIU/mL
  LH (male), LS mean difference from PBO (CFB): 1.8 mIU/mL
  SHBG (female), LS mean % CFB: 193.0%
  SHBG (female), LS mean CFB: 74.1 nmol/L
  SHBG (female), LS mean difference from PBO (% CFB): 177.4%
  SHBG (female), LS mean difference from PBO (CFB): 73.3 nmol/L
  SHBG (male), LS mean % CFB: 108.0%
  SHBG (male), LS mean CFB: 41.9 nmol/L
  SHBG (male), LS mean difference from PBO (% CFB): 107.3%
  SHBG (male), LS mean difference from PBO (CFB): 40.4 nmol/L
  SHBG, LS mean % CFB: 157.5%
  SHBG, LS mean CFB: 60.2 nmol/L
  SHBG, LS mean difference from PBO (% CFB): 148.5%
  SHBG, LS mean difference from PBO (CFB): 58.9 nmol/L
  Testosterone (female), LS mean CFB: 0.15 µg/L
  Testosterone (female), LS mean difference from PBO (CFB): 0.15 µg/L
  Testosterone (male), LS mean CFB: 2.6 µg/L
  Testosterone (male), LS mean difference from PBO (CFB): 2.2 µg/L
100 mg
  Estradiol (female), LS mean CFB: 30.6 ng/L
  Estradiol (female), LS mean difference from PBO (CFB): 28.8 ng/L
  Estradiol (male), LS mean CFB: 11.0 ng/L
  Estradiol (male), LS mean difference from PBO (CFB): 11.2 ng/L
  FSH (female), LS mean CFB: 0.63 mIU/mL
  FSH (female), LS mean difference from PBO (CFB): 2.0 mIU/mL
  FSH (male), LS mean CFB: 1.7 mIU/mL
  FSH (male), LS mean difference from PBO (CFB): 1.7 mIU/mL
  Free testosterone (female), LS mean CFB: 0 nmol/L
  Free testosterone (female), LS mean difference from PBO (CFB): 0 nmol/L
  Free testosterone (male), LS mean CFB: 0.03 nmol/L
  Free testosterone (male), LS mean difference from PBO (CFB): 0.01 nmol/L
  LH (female), LS mean CFB: 0.80 mIU/mL
  LH (female), LS mean difference from PBO (CFB): 1.4 mIU/mL
  LH (male), LS mean CFB: 1.9 mIU/mL
  LH (male), LS mean difference from PBO (CFB): 2.0 mIU/mL
  SHBG (female), LS mean % CFB: 251.8%
  SHBG (female), LS mean CFB: 94.0 nmol/L
  SHBG (female), LS mean difference from PBO (% CFB): 236.2%
  SHBG (female), LS mean difference from PBO (CFB): 93.2 nmol/L
  SHBG (male), LS mean % CFB: 174.0%
  SHBG (male), LS mean CFB: 60.8 nmol/L
  SHBG (male), LS mean difference from PBO (% CFB): 173.3%
  SHBG (male), LS mean difference from PBO (CFB): 59.3 nmol/L
  SHBG, LS mean % CFB: 217.4%
  SHBG, LS mean CFB: 80.7 nmol/L
  SHBG, LS mean difference from PBO (% CFB): 208.4%
  SHBG, LS mean difference from PBO (CFB): 79.4 nmol/L
  Testosterone (female), LS mean CFB: 0.19 µg/L
  Testosterone (female), LS mean difference from PBO (CFB): 0.19 µg/L
  Testosterone (male), LS mean CFB: 3.5 µg/L
  Testosterone (male), LS mean difference from PBO (CFB): 3.0 µg/L
In vivo
  levels of sex hormones: little changed from baseline

Reference: patent US12377104B1, “Methods for treating a fatty liver disease” (Madrigal Pharmaceuticals, Inc., priority 2024, dated 2025)
